Results on five compounds are retold here after patent US12391737B2, “Soluble NPY2 receptor agonists” (Boehringer Ingelheim International GmbH, priority 2020, dated 2025).

Each structure is given as a SMILES string. *1 amine or outer side, *2 acyl side, *3 side chain or, on linkers, in order; H or OH if unused. Where a SMILES comes first, the peptide text is derived from it. Side-chain parts run from the residue outwards. The star is where a group is joined. C18 diacid = O=C(O)CCCCCCCCCCCCCCCCC(=O)*; γGlu = O=C(O)[C@H](CCC(=O)[*:2])N[*:1]; Isovaleryl = CC(C)CC(=O)*; Ahx = NCCCCCC(=O)O

Data set [1] has as its target T1, Human Neuropeptide Y2 Receptor (Homo sapiens, UniProt P49146).
T1 construct: purchased CHEMICON HTS066M
T1 sequence (P49146 1-381): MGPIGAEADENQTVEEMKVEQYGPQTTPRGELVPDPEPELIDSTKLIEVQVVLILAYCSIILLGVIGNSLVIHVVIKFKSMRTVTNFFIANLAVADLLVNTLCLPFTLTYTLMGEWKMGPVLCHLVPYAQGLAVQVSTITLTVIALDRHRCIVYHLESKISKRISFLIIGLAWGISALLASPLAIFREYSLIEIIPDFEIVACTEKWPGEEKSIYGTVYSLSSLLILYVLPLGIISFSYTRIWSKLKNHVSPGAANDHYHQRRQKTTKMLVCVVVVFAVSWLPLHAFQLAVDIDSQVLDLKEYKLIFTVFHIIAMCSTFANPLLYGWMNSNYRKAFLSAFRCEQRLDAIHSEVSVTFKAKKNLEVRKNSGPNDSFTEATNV
Briefly: Radioligand binding competition assay (RLB). The conditions noted are these: Table 3, 125I-PYY(1-36) competition; read-out: Ki. The procedure, abridged: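 Filtration binding assay on human Y2 receptor membrane preparation, 0.5 μg protein per well, in 50 mM HEPES pH 7.4 containing 5 mM MgCl2, 1 mM CaCl2 and 0.2% ovalbumin. Plates shake 2 h at room temperature before harvest and scintillation counting.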

A short description of the next data set: Solubility determination. The conditions noted are these: for Sol6: pH 6; for Sol7: pH 7. An outline of the steps: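 First, TFA-salt peptide was added to 0.1 M sodium diphosphate (pH 6.4 or 7.0) to 10 mg/ml and shaken 2 h at room temperature. Next, insoluble material was filtered off. Finally, filtrate and control, each 1 mg/ml in 50% acetonitrile, were compared by reversed-phase chromatography.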

A word on the Ki: it is a dissociation constant, usually derived from enzyme kinetics or from competition with a known ligand. For the compound `CC(C)CC(=O)N[C@@H](C)C(=O)N1CCC[C@H]1C(=O)N[C@@H](CCC(=O)O)C(=O)N[C@@H](CCCCNC(=O)CCCCCNC(=O)CC[C@H](NC(=O)CCCCCCCCCCCCCCCCC(=O)O)C(=O)O)C(=O)N1CCC[C@H]1C(=O)N1CCC[C@H]1C(=O)N[C@@H](C)C(=O)N[C@@H](CC(=O)O)C(=O)N[C@@H](C)C(=O)N[C@H](C(=O)N1CCC[C@H]1C(=O)N[C@@H](CCC(=O)O)C(=O)N[C@@H](CCC(=O)O)C(=O)N[C@@H](CC(C)C)C(=O)N[C@@H](CCC(N)=O)C(=O)N[C@@H](CCCNC(=N)N)C(=O)N[C@@H](Cc1ccc(O)cc1)C(=O)N[C@@H](Cc1ccc(O)cc1)C(=O)N[C@H](C(=O)N[C@@H](CO)C(=O)N[C@@H](CC(C)C)C(=O)N[C@@H](CCCNC(=N)N)C(=O)N[C@@H](Cc1c[nH]cn1)C(=O)N[C@@H](Cc1ccc(O)cc1)C(=O)N[C@@H](Cc1ccc(O)cc1)C(=O)N[C@@H](CC(N)=O)C(=O)N[C@@H](Cc1c[nH]c2ccccc12)C(=O)N[C@@H](CC(C)C)C(=O)N[C@H](C(=O)N[C@@H](CCCNC(=N)N)C(=O)N[C@@H](CCC(N)=O)C(=O)N[C@@H](CCCNC(=N)N)C(=O)N[C@@H](Cc1ccc(O)cc1)C(N)=O)[C@@H](C)O)C(C)C)[C@@H](C)O` [Compound 30, N{alpha-4}-(3-methylbutanoyl)-N{epsilon-7}-(6-[(4S)-4-carboxy-4-(17-carboxyheptadecanamido)butanamido]hexanoyl)[4A,7K,9P,10A,13T,18Q,22V,28Y,30W,31L]-hPYY(4-36)] (Isovaleryl-APEK([Ahx-γGlu-C18 diacid])PPADATPEELQRYYVSLRHYYNWLTRQRY-NH2), the Ki in data set [1] was 0.3 nM. In “Solubility determination”, the “Sol6” value is 0.1 mg/mL and the “Sol7” value was determined as 9.4 mg/mL.
For `CC(C)CC(=O)N[C@@H](C)C(=O)N1CCC[C@H]1C(=O)N[C@@H](CCC(=O)O)C(=O)N[C@@H](CCCCNC(=O)CCCCCNC(=O)CC[C@H](NC(=O)CCCCCCCCCCCCCCCCC(=O)O)C(=O)O)C(=O)N1CCC[C@H]1C(=O)N[C@@H](CCC(=O)O)C(=O)N[C@@H](CCC(=O)O)C(=O)N[C@@H](CC(=O)O)C(=O)N[C@@H](C)C(=O)N[C@H](C(=O)N1CCC[C@H]1C(=O)N[C@@H](CCC(=O)O)C(=O)N[C@@H](CCC(=O)O)C(=O)N[C@@H](CC(C)C)C(=O)N[C@@H](CCC(N)=O)C(=O)N1CCC[C@H]1C(=O)N[C@@H](Cc1ccc(O)cc1)C(=O)N[C@@H](Cc1ccc(O)cc1)C(=O)N[C@H](C(=O)N[C@@H](CO)C(=O)N[C@@H](CC(C)C)C(=O)N[C@@H](CCCNC(=N)N)C(=O)N[C@@H](Cc1c[nH]cn1)C(=O)N[C@@H](Cc1ccc(O)cc1)C(=O)N[C@@H](Cc1ccc(O)cc1)C(=O)N[C@@H](CC(N)=O)C(=O)N[C@@H](Cc1c[nH]c2ccccc12)C(=O)N[C@@H](CC(C)C)C(=O)N[C@H](C(=O)N[C@@H](CCCNC(=N)N)C(=O)N[C@@H](CCC(N)=O)C(=O)N[C@@H](CCCNC(=N)N)C(=O)N[C@@H](Cc1ccc(O)cc1)C(N)=O)[C@@H](C)O)C(C)C)[C@@H](C)O` [Compound 31, N{alpha-4}-(3-methylbutanoyl)-N{epsilon-7}-(6-[(4S)-4-carboxy-4-(17-carboxyheptadecanamido)butanamido]hexanoyl)[4A,7K,9E,13T,18Q,19P,22V,28Y,30W,31L]-hPYY(4-36)], in that order: 34.7 nM, above 10.0 mg/mL and 10.0 mg/mL.
For `CC(C)CC(=O)N[C@@H](C)C(=O)N1CCC[C@H]1C(=O)N[C@@H](C)C(=O)N[C@@H](CCCCNC(=O)CCCCCNC(=O)CC[C@H](NC(=O)CCCCCCCCCCCCCCCCC(=O)O)C(=O)O)C(=O)N1CCC[C@H]1C(=O)N[C@@H](CCC(=O)O)C(=O)N[C@@H](CCC(=O)O)C(=O)N[C@@H](CC(=O)O)C(=O)N[C@@H](C)C(=O)N[C@@H](CO)C(=O)N1CCC[C@H]1C(=O)N[C@@H](CCC(=O)O)C(=O)N[C@@H](CCC(=O)O)C(=O)N[C@@H](CC(C)C)C(=O)N[C@@H](CCC(N)=O)C(=O)N[C@@H](CCCNC(=N)N)C(=O)N[C@@H](Cc1ccc(O)cc1)C(=O)N[C@@H](Cc1ccc(O)cc1)C(=O)N[C@H](C(=O)N[C@@H](CO)C(=O)N[C@@H](CC(C)C)C(=O)N[C@@H](CCCNC(=N)N)C(=O)N[C@@H](Cc1c[nH]cn1)C(=O)N[C@@H](CCC(N)=O)C(=O)N[C@@H](Cc1ccc(O)cc1)C(=O)N[C@@H](CC(N)=O)C(=O)N[C@@H](Cc1c[nH]c2ccccc12)C(=O)N[C@@H](CC(C)C)C(=O)N[C@H](C(=O)N[C@@H](CCCNC(=N)N)C(=O)N[C@@H](CCC(N)=O)C(=O)N[C@@H](CCCNC(=N)N)C(=O)N[C@@H](Cc1ccc(O)cc1)C(N)=O)[C@@H](C)O)C(C)C` [Compound 32, N{alpha-4}-(3-methylbutanoyl)-N{epsilon-7}-(6-[(4S)-4-carboxy-4-(17-carboxyheptadecanamido)butanamido]hexanoyl)[4A,6A,7K,9E,18Q,22V,27Q,28Y,30W,31L]-hPYY(4-36)], in that order: 13.6 nM, 8.2 mg/mL and 9.3 mg/mL.
For `CC[C@H](C)[C@H](NC(=O)[C@H](Cc1ccc(O)cc1)NC(=O)[C@H](Cc1ccc(O)cc1)NC(=O)[C@H](CCCNC(=N)N)NC(=O)[C@H](CCC(N)=O)NC(=O)[C@H](CC(C)C)NC(=O)[C@H](CCC(=O)O)NC(=O)[C@H](CCC(=O)O)NC(=O)[C@@H]1CCCN1C(=O)[C@H](CCC(=O)O)NC(=O)[C@H](C)NC(=O)[C@H](CC(=O)O)NC(=O)[C@H](CCC(=O)O)NC(=O)[C@H](CCC(=O)O)NC(=O)[C@@H]1CCCN1C(=O)[C@H](CCCCNC(=O)CCCCCNC(=O)CC[C@H](NC(=O)CCCCCCCCCCCCCCCCC(=O)O)C(=O)O)NC(=O)[C@H](C)NC(=O)[C@@H]1CCCN1C(=O)[C@H](C)NC(=O)CC(C)C)C(=O)N[C@@H](CO)C(=O)N[C@@H](CC(C)C)C(=O)N[C@@H](CCCNC(=N)N)C(=O)N[C@@H](Cc1c[nH]cn1)C(=O)N[C@@H](Cc1ccc(O)cc1)C(=O)N[C@@H](Cc1ccc(O)cc1)C(=O)N[C@@H](CC(N)=O)C(=O)N[C@@H](Cc1c[nH]c2ccccc12)C(=O)N[C@@H](CC(C)C)C(=O)N[C@H](C(=O)N[C@@H](CCCNC(=N)N)C(=O)N[C@@H](CCC(N)=O)C(=O)N[C@@H](CCCNC(=N)N)C(=O)N[C@@H](Cc1ccc(O)cc1)C(N)=O)[C@@H](C)O` [Compound 33, N{alpha-4}-(3-methylbutanoyl)-N{epsilon-7}-(6-[(4S)-4-carboxy-4-(17-carboxyheptadecanamido)butanamido]hexanoyl)[4A,6A,7K,9E,13E,18Q,22I,28Y,30W,31L]-hPYY(4-36)], in that order: 2.53 nM, 7.2 mg/mL and 8.3 mg/mL.
For `CC(C)CC(=O)N[C@@H](C)C(=O)N1CCC[C@H]1C(=O)N[C@@H](CCC(=O)O)C(=O)N[C@@H](CCCCNC(=O)CCCCCNC(=O)CC[C@H](NC(=O)CCCCCCCCCCCCCCCCC(=O)O)C(=O)O)C(=O)N1CCC[C@H]1C(=O)N[C@@H](CCC(=O)O)C(=O)N[C@@H](CCC(=O)O)C(=O)N[C@@H](CC(=O)O)C(=O)N[C@@H](C)C(=O)N[C@@H](CO)C(=O)N[C@@H](C)C(=O)N[C@@H](CCC(=O)O)C(=O)N[C@@H](CCC(=O)O)C(=O)N[C@@H](CC(C)C)C(=O)N[C@@H](CCC(N)=O)C(=O)N[C@@H](CCC(N)=O)C(=O)N[C@@H](Cc1ccc(O)cc1)C(=O)N[C@@H](Cc1ccc(O)cc1)C(=O)N[C@H](C(=O)N[C@@H](CO)C(=O)N[C@@H](CC(C)C)C(=O)N[C@@H](CCCNC(=N)N)C(=O)N[C@@H](Cc1c[nH]cn1)C(=O)N[C@@H](Cc1ccc(O)cc1)C(=O)N[C@@H](Cc1ccc(O)cc1)C(=O)N[C@@H](CC(N)=O)C(=O)N[C@@H](Cc1c[nH]c2ccccc12)C(=O)N[C@@H](CC(C)C)C(=O)N[C@H](C(=O)N[C@@H](CCCNC(=N)N)C(=O)N[C@@H](CCC(N)=O)C(=O)N[C@@H](CCCNC(=N)N)C(=O)N[C@@H](Cc1ccc(O)cc1)C(N)=O)[C@@H](C)O)C(C)C` [Compound 34, N{alpha-4}-(3-methylbutanoyl)-N{epsilon-7}-(6-[(4S)-4-carboxy-4-(17-carboxyheptadecanamido)butanamido]hexanoyl)[4A,7K,9E,14A,18Q,19Q,22V,28Y,30W,31L]-hPYY(4-36)], the Ki in data set [1] stood at 3.53 nM. In addition, in the data set “Solubility determination”, the “Sol6” value is 9.2 mg/mL and the “Sol7” value came to 9.1 mg/mL.
